Measurements published in ChEMBL document CHEMBL1201862, “PubChem BioAssay data set” (2004).
Activity calls are given as the source filed them.

Assays:
[1] = molecular target: T1, Small ubiquitin-related modifier 1 (Homo sapiens, UniProt P63165); assay: inhibitors of SUMO1 peptide binding, dose response, biochemical, fluorescence polarization, uHTS hits (AID 624382); type: functional; settings: read-out: IC50_Mean
[2] = molecular target: T2, Ubiquitin-conjugating enzyme E2 N (Homo sapiens, UniProt P61088); type: functional;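 note: Dose-response confirmation in a TR-FRET assay detecting UBC13-driven polyubiquitin chain formation, inhibition measured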
T2 sequence (P61088 whole entry): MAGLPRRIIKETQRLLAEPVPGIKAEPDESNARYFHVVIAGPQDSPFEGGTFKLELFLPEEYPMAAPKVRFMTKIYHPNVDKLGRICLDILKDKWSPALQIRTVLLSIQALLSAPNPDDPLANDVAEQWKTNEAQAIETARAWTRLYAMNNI

[3] = microbe, parasite or virus in culture; type: functional; settings: Mycobacterium tuberculosis
[4] = molecular target: T1, Small ubiquitin-related modifier 1; assay: inhibitors of SUMO1 partner interactions, dose response, biochemical, FRET (AID 624383); type: functional; settings: read-out: IC50_Mean
[5] = molecular target: T3, Rac GTPase-activating protein 1 (Homo sapiens, UniProt Q9H0H5); assay: MgcRacGAP GTPase-activating activity inhibitors, confirmation, biochemical, ADP Hunter fluorescence, primary and confirmatory (AID 624330); type: functional
T3 sequence (Q9H0H5 whole entry): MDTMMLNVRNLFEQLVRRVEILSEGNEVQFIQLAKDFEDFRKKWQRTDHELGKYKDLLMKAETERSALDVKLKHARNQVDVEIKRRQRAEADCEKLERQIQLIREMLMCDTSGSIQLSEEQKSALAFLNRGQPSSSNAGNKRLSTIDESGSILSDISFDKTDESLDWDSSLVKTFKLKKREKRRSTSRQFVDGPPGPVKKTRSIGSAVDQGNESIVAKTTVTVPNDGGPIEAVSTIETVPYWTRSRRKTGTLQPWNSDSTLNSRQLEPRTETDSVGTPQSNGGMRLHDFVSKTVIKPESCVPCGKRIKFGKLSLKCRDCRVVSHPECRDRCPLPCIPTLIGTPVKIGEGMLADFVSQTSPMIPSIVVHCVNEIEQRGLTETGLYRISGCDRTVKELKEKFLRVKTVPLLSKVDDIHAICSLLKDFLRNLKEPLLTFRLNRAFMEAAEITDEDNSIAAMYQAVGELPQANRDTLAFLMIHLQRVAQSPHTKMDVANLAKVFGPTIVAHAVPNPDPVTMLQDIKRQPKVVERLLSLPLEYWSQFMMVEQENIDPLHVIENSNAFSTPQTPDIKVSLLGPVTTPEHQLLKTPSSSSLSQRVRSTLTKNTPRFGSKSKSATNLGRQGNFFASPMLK

[6] = molecular target: Prothrombin (Homo sapiens, UniProt P00734); assay: Thrombin 1536 HTS Dose Response Confirmation. [Related pubchem assays: 1046 (Thrombin 1536 HTS; hits were confirmed in this assay)]; type: functional
[7] = molecular target: Beta-galactosidase (Escherichia coli, UniProt Q8VNN2); assay: Dose response counterscreen for EBI2 assay utilizing the enzyme, b-galactosidase.; type: functional
Sequence of Beta-galactosidase (Q8VNN2 whole entry): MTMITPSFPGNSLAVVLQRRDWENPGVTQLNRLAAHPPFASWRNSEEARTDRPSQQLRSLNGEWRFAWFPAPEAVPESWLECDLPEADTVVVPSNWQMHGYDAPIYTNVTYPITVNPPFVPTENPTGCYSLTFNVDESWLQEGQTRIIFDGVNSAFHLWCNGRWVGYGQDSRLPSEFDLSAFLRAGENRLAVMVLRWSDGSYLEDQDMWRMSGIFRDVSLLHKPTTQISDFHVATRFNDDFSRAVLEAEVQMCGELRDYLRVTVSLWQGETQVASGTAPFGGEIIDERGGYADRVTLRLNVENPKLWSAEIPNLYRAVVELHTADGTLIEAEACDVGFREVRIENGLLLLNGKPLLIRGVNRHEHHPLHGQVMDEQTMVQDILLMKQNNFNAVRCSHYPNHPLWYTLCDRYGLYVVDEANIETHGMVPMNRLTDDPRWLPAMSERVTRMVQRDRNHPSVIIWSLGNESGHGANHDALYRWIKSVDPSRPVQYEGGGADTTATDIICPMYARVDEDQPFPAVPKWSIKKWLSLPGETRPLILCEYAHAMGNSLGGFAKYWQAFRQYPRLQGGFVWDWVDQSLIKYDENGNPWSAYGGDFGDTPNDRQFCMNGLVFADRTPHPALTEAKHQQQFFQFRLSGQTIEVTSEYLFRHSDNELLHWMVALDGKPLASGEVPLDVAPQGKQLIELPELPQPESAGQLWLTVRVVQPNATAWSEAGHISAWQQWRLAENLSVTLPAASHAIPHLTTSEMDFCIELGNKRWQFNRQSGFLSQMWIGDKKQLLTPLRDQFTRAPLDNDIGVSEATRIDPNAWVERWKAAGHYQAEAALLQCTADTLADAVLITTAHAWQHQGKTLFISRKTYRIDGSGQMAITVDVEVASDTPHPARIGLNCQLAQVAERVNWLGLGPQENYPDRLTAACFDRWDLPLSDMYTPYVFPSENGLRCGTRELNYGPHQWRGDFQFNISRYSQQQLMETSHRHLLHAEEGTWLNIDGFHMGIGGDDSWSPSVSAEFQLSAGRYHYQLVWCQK

[8] = IGROV1 ovarian cancer cell cytotoxicity, dose response, PAX8 inhibitor project, plate reader, dry powder samples (AID 743043); type: functional, cell-based; settings: IGROV-1
[9] = cytotoxicity in OVCAR8 ovarian cancer cells, dose response, PAX8 project, cell-based, plate reader, dry powder samples (AID 743197); type: functional; settings: OVCAR-8
[10] = NIH:OVCAR-3 ovarian cancer cell cytotoxicity, dose response, PAX8 inhibitor project, plate reader, dry powder samples (AID 743044); type: functional, cell-based
[11] = molecular target: Paired box protein Pax-8 (Homo sapiens, UniProt Q06710); assay: inhibitors of PAX8-driven TPO luciferase reporter, dose response, RMG-I cells, cherry-pick (AID 687027); type: functional, cell-based;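 note: luciferase reporter driven by Pax8 target thyroperoxidase promoter measured by SteadyGlo luminescence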
Sequence of Paired box protein Pax-8 (Q06710 whole entry, the tested form may be a part): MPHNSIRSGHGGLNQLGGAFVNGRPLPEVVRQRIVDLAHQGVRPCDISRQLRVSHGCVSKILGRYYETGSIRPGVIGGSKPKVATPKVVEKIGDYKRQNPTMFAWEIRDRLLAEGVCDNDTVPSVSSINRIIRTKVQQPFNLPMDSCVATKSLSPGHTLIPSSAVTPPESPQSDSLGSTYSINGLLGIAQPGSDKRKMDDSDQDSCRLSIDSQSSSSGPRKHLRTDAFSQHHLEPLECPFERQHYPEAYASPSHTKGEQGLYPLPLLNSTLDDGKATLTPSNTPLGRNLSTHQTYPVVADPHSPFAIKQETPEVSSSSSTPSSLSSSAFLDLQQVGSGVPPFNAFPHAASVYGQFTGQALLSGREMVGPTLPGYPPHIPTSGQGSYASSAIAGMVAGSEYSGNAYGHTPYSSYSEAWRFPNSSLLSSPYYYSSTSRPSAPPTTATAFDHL

[12] = inhibitors of clade B AD8 Env fusion, dose response, cell-based, cherry-pick (AID 652062); type: functional;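 note: luciferase signal from cell-cell fusion driven by HIV-1 clade B AD8 Env; potency is for inhibitors of fusion seen as a drop in luminescence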
[13] = inhibitors of HIV Env-driven cell fusion, dose response, cherry-pick (AID 652057); type: functional, cell-based
[14] = ZM109 Env clade C HIV-1 fusion inhibitors, dose response, HeLa effector, CEM target cells, luciferase, cherry-pick (AID 652058); type: functional, cell-based
[15] = off-target signal loss in HeLa-CEM21 co-culture – HeLa F-luc CTL cells, cherry-picked, counter-screen for HIV-1 Env fusion inhibitor project, dose response (AID 652040); type: functional, cell-based;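 note: potency for signal decrease marking cytotoxic or nonspecific inhibition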
[16] = molecular target: 5-hydroxytryptamine receptor 2A (Mus musculus, UniProt P35363); type: functional, cell-based;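 note: CHO-K1 cells with tagged receptor and beta-arrestin; agonist potency measured as compound-induced activation of the receptor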
Sequence of 5-hydroxytryptamine receptor 2A (P35363 whole entry): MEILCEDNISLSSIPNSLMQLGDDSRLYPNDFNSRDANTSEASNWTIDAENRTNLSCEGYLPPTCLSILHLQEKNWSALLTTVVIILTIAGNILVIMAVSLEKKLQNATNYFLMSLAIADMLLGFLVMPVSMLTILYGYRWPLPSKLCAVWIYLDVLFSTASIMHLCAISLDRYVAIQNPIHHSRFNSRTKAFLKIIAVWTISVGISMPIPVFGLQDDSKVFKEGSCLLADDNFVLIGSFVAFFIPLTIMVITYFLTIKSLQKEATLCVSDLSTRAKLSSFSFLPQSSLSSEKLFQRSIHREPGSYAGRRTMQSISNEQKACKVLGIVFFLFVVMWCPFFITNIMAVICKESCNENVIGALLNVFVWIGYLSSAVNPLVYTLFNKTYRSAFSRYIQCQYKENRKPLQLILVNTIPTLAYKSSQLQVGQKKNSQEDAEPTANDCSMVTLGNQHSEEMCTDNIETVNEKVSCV

[17] = molecular target: Mu-type opioid receptor (Homo sapiens, UniProt P35372); type: functional, cell-based;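 note: U2OS cells with beta-arrestin recruitment to OPRM1 by beta-gal complementation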
Sequence of Mu-type opioid receptor (P35372 whole entry): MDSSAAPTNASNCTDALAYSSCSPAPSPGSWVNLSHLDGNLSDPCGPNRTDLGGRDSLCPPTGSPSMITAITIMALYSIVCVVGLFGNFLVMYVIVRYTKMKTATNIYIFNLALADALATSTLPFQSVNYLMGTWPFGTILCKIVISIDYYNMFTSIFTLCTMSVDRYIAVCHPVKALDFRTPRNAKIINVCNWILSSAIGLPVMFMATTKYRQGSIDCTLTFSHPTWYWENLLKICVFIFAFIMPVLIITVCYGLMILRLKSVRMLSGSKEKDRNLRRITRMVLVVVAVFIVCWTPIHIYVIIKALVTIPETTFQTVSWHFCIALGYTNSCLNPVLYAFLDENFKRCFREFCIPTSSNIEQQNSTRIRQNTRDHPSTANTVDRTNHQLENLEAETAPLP

[18] = molecular target: T4, Heat shock factor protein 1 (Mus musculus, UniProt P38532); assay: HSF1 potentiators in luciferase reporter cells, confirmation, cell-based, NIH3T3, luminescence, dose retest (AID 435004); type: functional;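 note: stress induced by proteasome inhibitor MG132 added 30 min after compound; luciferase reporter driven by HSF1 response element in NIH3T3 cells; actives raise luminescence as potentiators of the MG132 stress response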
T4 sequence (P38532 whole entry): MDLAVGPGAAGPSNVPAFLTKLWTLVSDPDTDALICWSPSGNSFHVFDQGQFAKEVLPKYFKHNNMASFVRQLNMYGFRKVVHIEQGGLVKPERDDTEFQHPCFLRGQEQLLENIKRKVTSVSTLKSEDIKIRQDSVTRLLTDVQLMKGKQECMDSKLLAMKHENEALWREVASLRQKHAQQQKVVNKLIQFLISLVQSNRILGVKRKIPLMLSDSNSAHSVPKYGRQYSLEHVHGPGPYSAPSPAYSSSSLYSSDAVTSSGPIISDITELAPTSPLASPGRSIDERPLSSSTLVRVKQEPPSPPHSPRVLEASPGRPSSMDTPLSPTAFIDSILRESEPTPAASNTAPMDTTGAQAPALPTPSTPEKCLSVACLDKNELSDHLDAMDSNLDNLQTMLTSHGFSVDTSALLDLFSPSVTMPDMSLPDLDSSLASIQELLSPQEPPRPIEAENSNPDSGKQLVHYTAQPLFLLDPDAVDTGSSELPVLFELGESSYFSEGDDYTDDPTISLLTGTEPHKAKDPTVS

[19] = THP-1 cell cytotoxicity, dose response, cytotoxicity control for Vif-APOBEC3G degradation inhibitor project, THP-1 cells (AID 1117359); type: functional; settings: Human immunodeficiency virus 1, THP-1
[20] = molecular target: Genome polyprotein (dengue virus type 2, UniProt P29990); assay: Dengue-2 NS5 methyltransferase inhibitors, primary screen, biochemical, confirmation dose response (AID 588689); type: functional
Sequence of Genome polyprotein (P29990 2492-3391 limits assumed): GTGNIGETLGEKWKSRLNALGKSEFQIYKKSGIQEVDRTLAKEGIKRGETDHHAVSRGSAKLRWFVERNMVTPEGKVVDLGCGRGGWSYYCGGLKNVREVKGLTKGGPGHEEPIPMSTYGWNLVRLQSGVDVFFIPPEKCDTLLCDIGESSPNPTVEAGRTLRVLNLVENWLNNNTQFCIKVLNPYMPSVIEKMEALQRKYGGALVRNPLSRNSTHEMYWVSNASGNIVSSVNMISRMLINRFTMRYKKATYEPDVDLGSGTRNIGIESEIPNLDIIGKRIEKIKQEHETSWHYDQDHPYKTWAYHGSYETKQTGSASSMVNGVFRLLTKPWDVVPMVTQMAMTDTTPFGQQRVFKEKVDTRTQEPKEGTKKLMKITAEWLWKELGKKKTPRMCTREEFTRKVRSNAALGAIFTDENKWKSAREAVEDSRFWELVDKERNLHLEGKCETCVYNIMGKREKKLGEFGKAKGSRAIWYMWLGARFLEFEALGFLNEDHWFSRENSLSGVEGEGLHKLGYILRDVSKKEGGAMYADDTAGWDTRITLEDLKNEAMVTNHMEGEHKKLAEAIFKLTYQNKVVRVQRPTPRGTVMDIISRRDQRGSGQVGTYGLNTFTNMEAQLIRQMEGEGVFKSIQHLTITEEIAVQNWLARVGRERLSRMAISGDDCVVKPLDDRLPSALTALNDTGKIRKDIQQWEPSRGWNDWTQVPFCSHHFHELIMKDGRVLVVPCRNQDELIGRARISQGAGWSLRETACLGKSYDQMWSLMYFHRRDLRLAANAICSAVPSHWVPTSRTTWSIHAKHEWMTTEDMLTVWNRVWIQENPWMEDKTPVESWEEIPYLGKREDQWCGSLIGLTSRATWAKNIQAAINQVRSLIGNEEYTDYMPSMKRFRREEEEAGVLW

[21] = molecular target: T5, Low molecular weight phosphotyrosine protein phosphatase (Homo sapiens, UniProt P24666); type: functional; settings: read-out: IC50_Mean;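 note: Dose-response confirmation assay measuring inhibition of LMPTP enzyme activity by fluorescence intensity read-out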
T5 sequence (P24666 whole entry): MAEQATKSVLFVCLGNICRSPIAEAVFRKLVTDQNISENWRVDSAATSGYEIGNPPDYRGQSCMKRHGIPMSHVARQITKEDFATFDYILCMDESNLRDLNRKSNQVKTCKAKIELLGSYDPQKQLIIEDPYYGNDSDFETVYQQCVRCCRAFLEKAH

[22] = molecular target: Glucose-6-phosphate 1-dehydrogenase (Homo sapiens, UniProt P11413); assay: human G6PD enzyme inhibitors, dose response, selectivity assay for P. falciparum G6PD inhibitor project, biochemical, fluorescence (AID 504792); type: functional
Sequence of Glucose-6-phosphate 1-dehydrogenase (P11413 whole entry): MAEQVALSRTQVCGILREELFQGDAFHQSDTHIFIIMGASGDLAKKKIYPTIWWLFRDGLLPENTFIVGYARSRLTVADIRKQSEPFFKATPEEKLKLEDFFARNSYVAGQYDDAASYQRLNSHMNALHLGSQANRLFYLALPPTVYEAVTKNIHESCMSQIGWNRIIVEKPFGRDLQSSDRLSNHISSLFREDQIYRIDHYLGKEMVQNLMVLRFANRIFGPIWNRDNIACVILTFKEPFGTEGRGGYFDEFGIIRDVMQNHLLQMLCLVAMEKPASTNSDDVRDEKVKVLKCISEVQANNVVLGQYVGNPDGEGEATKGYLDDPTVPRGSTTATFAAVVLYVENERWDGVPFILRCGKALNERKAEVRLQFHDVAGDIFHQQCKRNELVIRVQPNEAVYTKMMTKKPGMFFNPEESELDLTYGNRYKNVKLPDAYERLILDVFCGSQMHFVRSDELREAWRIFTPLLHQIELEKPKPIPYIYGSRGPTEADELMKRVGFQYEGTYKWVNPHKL

T1 sequence (P63165 whole entry): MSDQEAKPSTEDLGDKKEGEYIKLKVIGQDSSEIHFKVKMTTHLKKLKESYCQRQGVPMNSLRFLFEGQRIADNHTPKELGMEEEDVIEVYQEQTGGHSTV

C=C1c2c(Cl)ccc(O)c2C(=O)C2=C(O)[C@]3(O)C(=O)C(C(N)=O)=C(O)[C@@H](N(C)C)[C@@H]3[C@@H](O)[C@H]12.O=C(O)c1cc(S(=O)(=O)O)ccc1O [MECLOCYCLINE SULFOSALICYLATE]
IC50 [1]: 8.79 µM (active) | IC50 [2]: > 20 µM (inactive) | CC50 [3]: 16.4 µM (active) | IC50 [4]: 39.7 µM (inactive) | IC50 [5]: 63 µM (active)

OC1(c2ccc(F)cc2)CCN(Cc2nnnn2Cc2cccs2)CC1
IC50 [6]: > 50 µM (not active)

CCOC(=O)N1CCN(C(=O)c2cc3cc(C)ccc3[nH]2)CC1
IC50 [7]: > 80 µM (inactive)

C[C@@H]1CCCCO[C@@H](CN(C)Cc2ccc(C(F)(F)F)cc2)[C@H](C)CN([C@H](C)CO)C(=O)c2cc(NS(=O)(=O)c3ccc(F)cc3)ccc2O1
AC50 [8]: 40 µM (active) | AC50 [9]: 40.3 µM (active) | AC50 [10]: 25.2 µM (active) | AC50 [11]: 5.08 µM (active)

O=C(CN(Cc1ccccc1)S(=O)(=O)c1ccc(F)cc1)NCCC1=CCCCC1
AC50 [12]: 38 µM (active) | AC50 [13]: 2.55 µM (active) | AC50 [14]: 6.77 µM (active) | AC50 [15]: 17.1 µM (active)

CC(C)N1CCOC(c2ccc(O)c(O)c2)C1 (centres undefined)
EC50 [16]: 1.68 µM (active) | EC50 [17]: 92.3 µM (inactive)

CCOC(=O)c1sc2nc(CC(=O)OC)nc(NCc3ccco3)c2c1C
EC50 [18]: 63.7 µM (active) | CC50 [19]: 32.7 µM (active)

O=C(O)c1cccc(-n2cccc2/C=C/[N+](=O)[O-])c1
IC50 [1]: > 66.6 µM (inactive) | IC50 [20]: 53.6 µM (active) | IC50 [4]: 26.5 µM (inactive)

Nc1nc(-c2ccco2)nn1C(=O)c1ccccc1
IC50 [6]: 0.926 µM (active)

CC(=Cc1ccccc1)C=C1SC(=S)N(CCCC(=O)Nc2ccc(C(=O)O)cc2)C1=O
IC50 [21]: 80 µM (inactive)

C#CCCc1cscc1/C=[N+](\[O-])c1ccc(C(=O)OCC)cc1
IC50 [22]: 29.7 µM (inactive)

CCc1ccccc1N1CSC2=C(C#N)C(c3ccccc3F)CC(=O)N2C1 (centres undefined)
IC50 [22]: > 80 µM (inactive)

CCC(c1nnnn1-c1c(C)cccc1C)N1CCN(C/C=C/c2ccccc2)CC1 (centres undefined)
EC50 [16]: 0.362 µM (active) | EC50 [17]: 92.6 µM (inactive)

O=C(COc1ccc(Cl)cc1)N1CCN(Cc2ccc3c(c2)OCO3)CC1 [FIPEXIDE]
IC50 [7]: > 80 µM (inactive)
